Measurements taken from PMC6647725 (Analytical and Bioanalytical Chemistry, 2019).

How the values were obtained:
[1] = Stability of stock solutions at − 20 °C; type: physicochemical; settings: 1 mg/mL stock solution, storage at − 20 °C
Protocol: (§1) The stability of each analyte was investigated in all the previously mentioned matrices. For plasma (both human and mouse), the stability was determined in triplicate at two concentration levels, QC L and QC H, whereas for mouse tissue homogenates only at QC M (except the brain in one stability condition). For all matrices, the following stability conditions were assessed: short term at room temperature (RT), long term at − 20 °C, and after 3 freeze-thaw (F/T) cycles at − 20 °C/RT. Furthermore, for tissue homogenates, the short-term stability in ice-water, long-term stability at − 70 °C, and F/T stability at − 70 °C/ice-water were also evaluated. Additionally, the stability in the final extract was tested. For this, the QC L and QC H final extracts from the plasma, brain, and spleen and the QC M final extract from the liver, kidney and small intestine were stored at 4–8 °C up to 3 days. Lastly, the stability of the stock solutions at − 20 °C was investigated.

[2] = Stability in human plasma and its final extract (LC-MS/MS); type: in vitro ADME; settings: nominal 5 ng/mL
Protocol: (§2) 50 μL of the sample (either from a preclinical study, calibration standard, or QC) was mixed with 25 μL of IS-working solution, followed by 150 μL of ACN for protein precipitation. Samples were vortex mixed and centrifuged at 23,100g for 10 min at 20 °C. An aliquot of 80 μL of supernatant was diluted with 120 μL of 10 mM ammonium bicarbonate in water:MeOH (1:1 v/v). The final extract was transferred to a glass vial with insert, and 10 μL was injected to the LC-MS/MS system for analysis.
as §1, with “For this, the QC L and QC H final extracts from the plasma, brain, and spleen and the QC M final extract from the liver, kidney and small intestine were stored at 4–8 °C up to 3 days.” left out

[3] = Stability in mouse plasma and its final extract (LC-MS/MS); type: in vitro ADME; settings: mouse plasma; − 20 °C, 3 m; nominal 150 ng/mL
Protocol: as §2
as §1, with “For this, the QC L and QC H final extracts from the plasma, brain, and spleen and the QC M final extract from the liver, kidney and small intestine were stored at 4–8 °C up to 3 days.” left out

[4] = Stability in mouse liver homogenate and its final extract; type: in vitro ADME; settings: nominal 50 ng/mL
Protocol: as §1, with “After weighing the complete organ, a volume of 3 mL of this solution was added to the liver and small intestine, 2 mL to the kidneys, and 1 mL to the brain and spleen. The tissue/BSA ratio (w/v) of the homogenates were approximately 0.4:1 for the brain and liver, 0.1:1 for the spleen, 0.2:1 for the kidneys, and 0.25:1 for the small intestine. All samples were shaken in the Fast Prep at 6.0 m/s during 60 s. The” for “The”

[5] = Stability in mouse kidney homogenate and its final extract; type: in vitro ADME; settings: nominal 50 ng/mL
Protocol: as §1, with “After weighing the complete organ, a volume of 3 mL of this solution was added to the liver and small intestine, 2 mL to the kidneys, and 1 mL to the brain and spleen. The tissue/BSA ratio (w/v) of the homogenates were approximately 0.4:1 for the brain and liver, 0.1:1 for the spleen, 0.2:1 for the kidneys, and 0.25:1 for the small intestine. All samples were shaken in the Fast Prep at 6.0 m/s during 60 s. The” for “The”

[6] = Stability in mouse brain homogenate and its final extract; type: in vitro ADME
Protocol: as §1, with “After weighing the complete organ, a volume of 3 mL of this solution was added to the liver and small intestine, 2 mL to the kidneys, and 1 mL to the brain and spleen. The tissue/BSA ratio (w/v) of the homogenates were approximately 0.4:1 for the brain and liver, 0.1:1 for the spleen, 0.2:1 for the kidneys, and 0.25:1 for the small intestine. All samples were shaken in the Fast Prep at 6.0 m/s during 60 s. The” for “The”

[7] = Stability in mouse small intestine homogenate and its final extract; type: in vitro ADME; settings: nominal 50 ng/mL
Protocol: as §1, with “After weighing the complete organ, a volume of 3 mL of this solution was added to the liver and small intestine, 2 mL to the kidneys, and 1 mL to the brain and spleen. The tissue/BSA ratio (w/v) of the homogenates were approximately 0.4:1 for the brain and liver, 0.1:1 for the spleen, 0.2:1 for the kidneys, and 0.25:1 for the small intestine. All samples were shaken in the Fast Prep at 6.0 m/s during 60 s. The” for “The”

[8] = Stability in tissue homogenates; type: in vitro ADME, mouse
Protocol: as §1

[9] = tested on: CDK6; settings: cited from earlier work
[10] = liver homogenate, 3 F/T (− 70 °C, ice/water bath)
[11] = kidney homogenate, LT − 70 °C, 1 m
[12] = brain homogenate, 3 F/T (− 70 °C, ice/water bath), nominal 50 ng/mL
[13] = brain homogenate, LT − 70 °C, 1 m, nominal 50 ng/mL
[14] = final extract (listed under brain homogenate), 4–8 °C, 3 d, nominal 5 ng/mL
[15] = small intestine homogenate, 3 F/T (− 70 °C, ice/water bath)
[16] = small intestine homogenate, RT, 3 h

With `CN(C)C(=O)c1cc2cnc(Nc3ccc(N4CCNCC4)cn3)nc2n1C1CCCC1` [Ribociclib] as the molecule, how does the “stability of stock solutions (time stable)” value [1] read?
The value was “at least 12 months”.

What about the Mean concentration ([2]; final extract (listed under human plasma), 4–8 °C, 4 d) of the same molecule?
Its Mean concentration is 4.6 ng/mL.

What about the Mean concentration ([2]; human plasma, 2 F/T (− 20 °C/RT)) of the same molecule?
Its Mean concentration is 4.7 ng/mL.

What about the Mean concentration ([2]; human plasma, 3 F/T (− 20 °C/RT)) of the same molecule?
The Mean concentration was 4.3 ng/mL.

And the Mean concentration ([2]; human plasma, RT, 3 d)?
Its Mean concentration is 4.6 ng/mL.

And the Mean concentration ([2]; human plasma, − 20 °C, 12 m)?
The Mean concentration was 4.9 ng/mL.

And the “Accuracy (% Bias)” value [3]?
The value was 4.7%.

And the Mean concentration ([4]; final extract (listed under liver homogenate), 4–8 °C, 2 d)?
Its Mean concentration is 42.6 ng/mL.

What about the Mean concentration ([4]; liver homogenate, 3 F/T (RT, − 20 °C)) of the same molecule?
The Mean concentration was 47.7 ng/mL.

And the “Accuracy (% Bias)” value [4, 10]?
The value was 0.1%.

And the Mean concentration [4, 10]?
The Mean concentration was 50.0 ng/mL.

What about the Mean concentration ([4]; liver homogenate, LT − 20 °C, 1 m) of the same molecule?
The Mean concentration was 32.4 ng/mL.

What about the Mean concentration ([4]; liver homogenate, LT − 70 °C, 1 m) of the same molecule?
Its Mean concentration is 49.1 ng/mL.

What about the Mean concentration ([4]; liver homogenate, RT, 1 d) of the same molecule?
The Mean concentration was 41.9 ng/mL.

And the Mean concentration ([4]; liver homogenate, ice/water bath, 3 h)?
The Mean concentration was 45.4 ng/mL.

What about the Mean concentration ([5]; final extract (listed under kidney homogenate), 4–8 °C, 2 d) of the same molecule?
The Mean concentration was 43.2 ng/mL.

What about the Mean concentration ([5]; kidney homogenate, 3 F/T (RT, − 20 °C)) of the same molecule?
The Mean concentration was 15.7 ng/mL.

And the Mean concentration ([5]; kidney homogenate, 3 F/T (− 70 °C, ice/water bath))?
Its Mean concentration is 49.1 ng/mL.

What about the Mean concentration ([5]; kidney homogenate, LT − 20 °C, 1 m) of the same molecule?
Its Mean concentration is 31.5 ng/mL.

What about the “Accuracy (% Bias)” value [5, 11] of the same molecule?
Its value is 0.5%.

What about the Mean concentration [5, 11] of the same molecule?
The Mean concentration was 50.2 ng/mL.

What about the Mean concentration ([5]; kidney homogenate, RT, 3 h) of the same molecule?
The Mean concentration was 43.4 ng/mL.

And the Mean concentration ([5]; kidney homogenate, RT, 1 d)?
The Mean concentration was 0.91 ng/mL.

And the Mean concentration ([5]; kidney homogenate, ice/water bath, 3 h)?
Its Mean concentration is 42.7 ng/mL.

What about the Mean concentration ([6]; brain homogenate, 3 F/T (RT, − 20 °C), nominal 50 ng/mL) of the same molecule?
Its Mean concentration is 48.8 ng/mL.

And the “Accuracy (% Bias)” value [6, 12]?
Its value is 0.1%.

What about the Mean concentration [6, 12] of the same molecule?
The Mean concentration was 50.0 ng/mL.

And the Mean concentration ([6]; brain homogenate, LT − 20 °C, 1 m, nominal 50 ng/mL)?
Its Mean concentration is 49.1 ng/mL.

And the “Accuracy (% Bias)” value [6, 13]?
The value was 4.6%.

And the Mean concentration [6, 13]?
Its Mean concentration is 52.3 ng/mL.

And the Mean concentration ([6]; brain homogenate, RT, 1 d, nominal 5 ng/mL)?
Its Mean concentration is 4.6 ng/mL.

And the Mean concentration ([6]; brain homogenate, RT, 1 d, nominal 150 ng/mL)?
Its Mean concentration is 129.7 ng/mL.

What about the Mean concentration ([6]; brain homogenate, ice/water bath, 3 h, nominal 50 ng/mL) of the same molecule?
Its Mean concentration is 49.4 ng/mL.

What about the “Accuracy (% Bias)” value [6, 14] of the same molecule?
Its value is 2.7%.

What about the Mean concentration [6, 14] of the same molecule?
Its Mean concentration is 5.1 ng/mL.

And the “Accuracy (% Bias)” value ([6]; final extract (listed under brain homogenate), 4–8 °C, 3 d, nominal 150 ng/mL)?
The value was 3.1%.

What about the Mean concentration ([7]; final extract (listed under small intestine homogenate), 4–8 °C, 2 d) of the same molecule?
Its Mean concentration is 44.2 ng/mL.

And the Mean concentration ([7]; small intestine homogenate, 3 F/T (RT, − 20 °C))?
The Mean concentration was 45.6 ng/mL.

And the “Accuracy (% Bias)” value [7, 15]?
Its value is 0.1%.

And the Mean concentration [7, 15]?
Its Mean concentration is 50.0 ng/mL.

What about the Mean concentration ([7]; small intestine homogenate, LT − 20 °C, 1 m) of the same molecule?
The Mean concentration was 38.9 ng/mL.

What about the Mean concentration ([7]; small intestine homogenate, LT − 70 °C, 1 m) of the same molecule?
Its Mean concentration is 48.9 ng/mL.

What about the “Accuracy (% Bias)” value [7, 16] of the same molecule?
Its value is 1.3%.

What about the Mean concentration [7, 16] of the same molecule?
The Mean concentration was 50.6 ng/mL.

And the Mean concentration ([7]; small intestine homogenate, RT, 1 d)?
The Mean concentration was 41.9 ng/mL.

And the Mean concentration ([7]; small intestine homogenate, ice/water bath, 3 h)?
The Mean concentration was 48.4 ng/mL.

And the “stability in tissue homogenates (in words)” value ([8]; all tissue homogenates and conditions of Table 6)?
Its value is “showed instability in tissue homogenates”.

And the “time stable in kidney and spleen homogenates” value ([8]; room temperature and ice/water bath)?
Its value is “at least 3 h”.

What about the IC50 [9] of the same molecule?
The IC50 was 39 nM.
